Test results from patent publication US9255072B2, “Pyrazole compounds and thiazole compounds as protein kinases inhibitors” (National Health Rsearch Institutes, priority 2011, dated 2016).
Where two headings read alike, the source gives them in different places.

Tests used:
[1] = biological target: T1, VEGFR1 (Homo sapiens, UniProt P17948); assay: VEGFR1 Kinase-Glo kinase assay; assay type: biochemical
T1 construct: GST-VEGFR1 (residues R781-I1338); GST (N); made in house; host or cells: Sf9 insect cells
T1 sequence (P17948 781-1338): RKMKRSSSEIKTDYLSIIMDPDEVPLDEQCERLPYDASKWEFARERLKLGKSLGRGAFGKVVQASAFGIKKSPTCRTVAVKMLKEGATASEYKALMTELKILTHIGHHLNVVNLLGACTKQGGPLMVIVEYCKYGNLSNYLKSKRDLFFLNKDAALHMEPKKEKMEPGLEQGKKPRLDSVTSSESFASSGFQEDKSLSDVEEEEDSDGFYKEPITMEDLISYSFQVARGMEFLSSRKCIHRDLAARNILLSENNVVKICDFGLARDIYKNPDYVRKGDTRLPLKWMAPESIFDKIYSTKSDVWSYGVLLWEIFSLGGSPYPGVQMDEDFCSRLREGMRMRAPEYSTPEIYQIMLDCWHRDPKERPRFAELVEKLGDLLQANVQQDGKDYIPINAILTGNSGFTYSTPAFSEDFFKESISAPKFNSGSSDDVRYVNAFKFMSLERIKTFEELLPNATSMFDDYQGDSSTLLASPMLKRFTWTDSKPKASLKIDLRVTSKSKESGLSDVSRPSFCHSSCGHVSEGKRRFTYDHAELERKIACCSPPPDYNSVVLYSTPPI

[2] = biological target: T2, VEGFR2 (Homo sapiens, UniProt P35968); assay: VEGFR2 Kinase-Glo kinase assay; assay type: biochemical
T2 construct: GST-VEGFR2 (residues V789-V1356); GST (N); made in house; host or cells: Sf9 insect cells

[3] = biological target: T3, Aurora A (Homo sapiens, UniProt O14965); assay: Aurora kinase A Kinase-Glo kinase assay; assay type: biochemical
T3 construct: GST-Aurora A (residues S123-S401); GST (N); made in house; host or cells: Sf9 insect cells
T3 sequence (O14965 123-401): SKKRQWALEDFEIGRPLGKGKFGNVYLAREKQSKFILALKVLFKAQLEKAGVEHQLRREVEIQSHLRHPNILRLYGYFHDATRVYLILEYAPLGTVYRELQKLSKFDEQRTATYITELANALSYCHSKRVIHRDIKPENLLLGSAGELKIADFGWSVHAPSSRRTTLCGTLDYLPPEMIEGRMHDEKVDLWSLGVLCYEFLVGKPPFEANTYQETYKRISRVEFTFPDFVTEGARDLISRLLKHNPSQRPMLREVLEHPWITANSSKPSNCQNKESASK
Experimental: The recombinant GST-Aurora A (residues S123-S401) containing kinase domain were expressed in Sf9 insect cells. The kinase assay were carried out in 96-well plates with tested compound in a final volume of 50 μl reaction at 37° C. for 90 minutes with following components: 50 mM Tris-HCl pH 7.4, 10 mM NaCl, 10 mM MgCl2, 0.01% BSA, 5 μM ATP, 1 mM DTT and 15 μM tetra(LRRASLG) peptide, and 150 ng recombinant Aurora A. Following incubation, 50 μl Kinase-Glo Plus Reagent (Promega, Madison, Wis., USA) was added to each well and the mixture was incubated at 25° C. for 20 min. A 70-μL aliquot of each reaction mixture was transferred to a black microtiter plate and the luminescence was measured on Wallac Vector 1420 multilabel counter (PerkinElmer, Shelton, Conn., USA).

[4] = tested on: MOLM-13 cell; assay: MTS cell viability assay; assay type: cell-based; settings: Homo sapiens, MOLM-13, 72 h, table of representative values
Source text: The leukemias cell lines MOLM-13, MV4:11, RSV4:11, MOLT-4, U937, and K562 were purchased from American Type Culture Collection (ATCC, Manassas, Va., USA). The non-leukemias cell lines HCC827, H1975, NCIH460, A431, Huh7, SF268, MCF-7, HCT-116, and normal human fetal fibroblast cell line Detriot 551 were purchased from American Type Culture Collection (ATCC, Manassas, Va., USA). All leukemias cell lines and HCC827, H1975, NCIH460, A431 were maintained in RPMI 1640 medium supplemented with 10% fetal bovine serum (FBS), 10 U/ml penicillin, and 10 µg/ml streptomycin at 37° C. and 5% CO2. The cell lines Huh7, SF268, MCF-7, and Detroit 551 were cultured in DMEM medium supplemented with 10% FBS, 0.01% nonessential amino acids, 10 U/ml penicillin, and 10 µg/ml streptomycin. HCT-116 were cultured in McCoy's 5A medium supplemented with 10% FBS, 0.01% nonessential amino acids, 10 U/ml penicillin, and 10 µg/ml streptomycin. To determine cell viability after drug treatment, assays were performed by seeding 10,000 cells (leukemias cell lines) or 2,500 cells (non-leukemias cell lines) per well in a 96-well culture plate. After 16 h, cells were then treated with vehicle or various concentrations of compound in medium for 72 h. Viable cells were quantitated using the MTS method (Promega, Madison, Wis., USA) according to the manufacturer's recommended protocol. The results were determined by measuring the absorbance at 490 nm using a plate reader (Victor2; PerkinElmer, Shelton, Conn., USA).

[5] = VEGFR1 assay, 1 μM ATP, bound in nM, read-out: IC50
[6] = VEGFR1 assay, 1 μM ATP, bound in μM, read-out: IC50
[7] = table of representative values, read-out: IC50 (nM) VEGFR1
[8] = VEGFR2 assay, 1 μM ATP, bound in μM, read-out: IC50
[9] = VEGFR2 assay, 1 μM ATP, ranges in nM, read-out: IC50
[10] = table of representative values, read-out: IC50 (nM) VEGFR2
[11] = Aurora A assay, 5 μM ATP, bound in nM, read-out: IC50
[12] = Aurora A assay, 5 μM ATP, bound in μM, read-out: IC50
[13] = table of representative values, read-out: IC50 (nM) Aurora A

T2 sequence (P35968 789-1356): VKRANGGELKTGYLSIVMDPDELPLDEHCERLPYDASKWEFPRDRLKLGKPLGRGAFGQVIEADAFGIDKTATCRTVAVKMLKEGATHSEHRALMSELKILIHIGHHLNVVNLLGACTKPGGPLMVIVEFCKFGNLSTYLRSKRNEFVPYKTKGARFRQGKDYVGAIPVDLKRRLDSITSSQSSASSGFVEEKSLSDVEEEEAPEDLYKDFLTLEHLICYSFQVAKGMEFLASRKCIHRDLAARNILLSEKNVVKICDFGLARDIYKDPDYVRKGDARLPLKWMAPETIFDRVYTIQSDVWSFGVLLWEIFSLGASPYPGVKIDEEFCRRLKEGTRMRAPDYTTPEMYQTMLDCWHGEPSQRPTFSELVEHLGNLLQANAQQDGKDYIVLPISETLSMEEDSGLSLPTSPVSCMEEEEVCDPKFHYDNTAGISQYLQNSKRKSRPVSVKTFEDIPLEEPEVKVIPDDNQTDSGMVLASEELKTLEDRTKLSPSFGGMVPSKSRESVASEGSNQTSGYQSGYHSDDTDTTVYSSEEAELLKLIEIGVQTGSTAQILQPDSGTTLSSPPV

Row | SMILES | IC50 [1, 5] | IC50 [1, 6] | IC50 [1, 7] | IC50 [2, 8] | IC50 [2, 9] | IC50 [2, 10] | IC50 [3, 11] | IC50 [3, 12] | IC50 [3, 13] | GI50 [4]
1 | CCc1cc(NC(=O)Nc2ccc(-c3cnc(Nc4cc(N5CCN(CC)CC5)nc(C)n4)s3)cc2)no1 [Compound 112, N-(5-ethyl-3-isoxazolyl)-N′-[4-(2-[6-(4-ethylpiperazino)-2-methyl-4-pyrimidinyl]amino-1,3-thiazol-5-yl)phenyl]urea] | < 100 nM | < 1000 nM | 20 nM | < 1 µM | 0.001 to 0.055 µM | 0.025 µM | < 200 nM | < 1000 nM | 32 nM | 2 nM
2 | CCc1cc(NC(=O)Nc2ccc(-c3cnc(Nc4cc(N5CCC(N)C5)nc(C)n4)s3)cc2)no1 (centres unmarked) [Compound 119, N-[4-(2-[6-(3-aminotetrahydro-1H-1-pyrrolyl)-2-methyl-4-pyrimidinyl]amino-1,3-thiazol-5-yl)phenyl]N′-(5-ethyl-3-isoxazolyl)urea] | < 100 nM | < 1000 nM | 63 nM | < 1 µM | 0.001 to 0.055 µM | 0.007 µM | < 200 nM | < 1000 nM | 38 nM | 3 nM
